Data set [1] in a line: Conductometry, critical aggregation concentration. The data set is classed as physicochemical. As to conditions: water solution, 25 °C; GCR-2 in the presence of two-fold excess of MG. As for the experimental part:
Firstly, self-assembly of GCR-1 was studied by conductometric measurements (Figure 1). Specific conductivity increases proportionately with the GCR-1 concentration in water solution. Inflection on the plot appears at 14 mM, and after this critical aggregation concentration (CAC) the increment rate of conductivity reduces because the aggregates transfer charge less efficiently than monomers. Remarkably, modification of calix[4]resorcinarene by N-methyl-D-glucamine fragment facilitates self-aggregation of macrocycle in water medium (Figure 1). The CAC value for calix[4]resorcinarene (CR-1) without meglumine units at the upper rim is 20 mM that is greater than that for meglumine-modified calix[4]resorcinarene. The driving forces of intermolecular aggregates’ formation are probably hydrogen bonds between hydroxyl groups on the GCR-1 upper rim, so the presence of additional OH-groups in the meglumine group reinforces this noncovalent interaction. A stable pH value, which can be observed over a wide range of concentrations, verifies that the N-methyl-D-glucamine fragment is an effective buffer component (Figure S4). […] As a result, the aggregation of this calix[4]resorcinarene was studied in water solutions at the presence of two-fold excess of N-methyl-D-glucamine (MG). […] Specific conductivity values were measured at least three times for each concentration. […]

A short description of data set [2]: Transmission electron microscopy of aggregates. As to conditions: aqueous solution mixture of GCR-2 with two-fold excess of MG. The format is physicochemical. As for the experimental part: In a mixed 1 mM GCR-2–2 mM MG system particles with a hydrodynamic diameter of 2 nm were formed, which correlates well with the size of single macrocycle molecules. In a 15 mM GCR-2–30 mM MG mixed system particles with 3.8 nm diameter were formed. Such a size approximately corresponds to double the length of a GCR-2 molecule. This indicates of formation of spherical micelles by virtue of lateral packaging of aromatic walls by head-to-head contact due to π–stacking and hydrogen bonds between neighboring GCR-2 molecules as depicted in Figure 6b. Such an aggregation mode is similar to the self-assembly behavior described for other calixarenes. The zeta-potential of obtained particles is −17.4 mV which is attributable primarily to hydroxylic groups. The formation of little spherical particles was further affirmed by TEM images (Figure 5b). In comparison with the nanostructure of GCR-1 aggregates, smaller nanostructures with a diameter of ca. 5 ± 2 nm were formed in the aqueous solution mixture of GCR-2, which was in good accordance with the DLS measurements.
TEM images were recorded on a HT7700 TEM instrument (Hitachi, Tokyo, Japan) operated at 110 kV accelerating voltage. The samples with 20 mM solutions were ultrasonicated in water for 10 min and then dispersed on 300 mesh carbon-coated copper grid.

Some results are limits rather than exact numbers.

By melting point is commonly meant the temperature of the solid-liquid transition.

The compound `CC1c2cc(c(O)c(CN(C)C[C@@H](O)[C@H](O)[C@@H](O)[C@@H](O)CO)c2O)C(C)c2cc(c(O)c(CN(C)C[C@@H](O)[C@H](O)[C@@H](O)[C@@H](O)CO)c2O)C(C)c2cc(c(O)c(CN(C)C[C@@H](O)[C@H](O)[C@@H](O)[C@@H](O)CO)c2O)C(C)c2cc1c(O)c(CN(C)C[C@@H](O)[C@H](O)[C@@H](O)[C@@H](O)CO)c2O` (stereo partly drawn) [GCR-2, N-methyl-D-glucaminemethyl methylcalix[4]resorcinarene] showed a melting point of over 350 °C. Besides, the “CAC, conductometry” value in data set [1] is recorded as 7.9 mM. For the same compound, the “Diameter of nanostructures by TEM” value in data set [2] is “ca. 5 ± 2 nm”.
